Source: PMC10043390, “Novel 2-substituted-5-(4-chloro-2-phenoxy)phenyl-1,3,4-oxadiazole derivatives, ligands of GABAA/benzodiazepine receptor complex: Design, synthesis, radioligand binding assay, and pharmacological evaluation” (EXCLI Journal, 2023)
Values joined by “and” are separate entries in the source; they are usually repeats but may differ in a detail not shown here. Equal values may be shown once. Read-outs that look alike come from different tables or passages of the source.

What was measured:
[1] = target: benzodiazepine receptor of rat brains; assay: Radioligand receptor binding assay ([3H]-flumazenil competitive binding); conditions: for Ki: [3H]-flumazenil competitive binding; for Specific binding of [3H]flumazenil: mean ± SEM, n=3; for IC50: reduction of specific binding of [3H]-flumazenil by 50 %, triplicates, 30 °C, 35 min
Description: All of the binding assays were performed in triplicates in a total volume of 500 µL at 30 °C for 35 min (Ahmadi et al., 2013[1]).
(§1) Kd and Bmax in radioligand binding assay were calculated by non-linear regression analysis of the saturation and competitive curve data (Program Prism, Graph Pad, San Diego, CA). The IC50s of the novel compounds in binding studies were determined using […]. […] In PTZ and MES tests, the data were presented as a mean with 95% confidence intervals. In the rest of the pharmacological evaluations, one-way ANOVA with Tukey's HSD post-hoc test was used. All the data were presented as mean ± SEM and P<0.05 was considered statistically significant.

male NMRI albino mice [2] = assay: PTZ-induced lethal convulsion test; assay type: in vivo
Description: (§2) To assess the anticonvulsant activity of the novel compound 6a, we used PTZ-induced convulsion and MES tests (Guerrini et al., 2008[10]; Lankau et al., 2007[13]). In both models, the ability of the novel compound to protect mice against induced seizures was evaluated. Animals were closely observed for 30 minutes after injection of the lethal dose of PTZ (100 mg/kg) and the number of dead mice after convulsion was reported. In the MES test, each subject was observed closely and the incidence of hind limb tonic extension (HLTE) in the subjects after application of MES (60 Hz, 37.2 mA, and 0.25 s) was reported.
as §1

male NMRI albino mice [3] = assay: Maximal electroshock (MES) test; assay type: in vivo
Description: as §2, §1

male NMRI albino mice [4] = assay: Pentobarbital-induced sleep test; assay type: in vivo; conditions: for Sleeping time: pentobarbital 40 mg/kg i.p., raw data of single animals
Text: The duration of the loss of the righting reflex was considered as the sleeping time. […] For prevention of hypothermia during the experiment, animals were placed on an electric blanket (Khoramjouy et al., 2021[11]).

male NMRI albino mice [5] = assay: Elevated plus-maze test; assay type: in vivo; conditions: for % duration in close arms / % duration in open arms: raw data of single animals
Description: The elevated plus-maze device was made up of Plexiglas, and it contained two open arms (30×5×0.5 cm) and two closed arms (30×5×35 cm) with an open roof. They were arranged so that the open arms were opposite to […]. The entire maze was elevated at a height of 1 meter. The mice were individually placed in the central square of the maze (5×5 cm) where all four arms were connected together after 30 minutes of intraperitoneal (i.p) administration of the test compounds. The time spent in the open and closed arms was recorded.

male NMRI albino mice [6] = conditions: for latency of entrance to the dark compartment: testing day, raw data of single animals
Description: For the mice to get adapted to the lab environment, we transferred them to the lab 60 minutes before the tests started. Mice were randomly selected for all the experimental groups and each subject was tested only once for the pharmacological evaluations.
Distilled water was used as a solvent (vehicle) of PTZ and pentobarbital. Both, PTZ and pentobarbital were injected i.p. 5 ml/kg.
The passive avoidance cage (Malek Teb Co., Tehran) consists of two different compartments separated by a guillotine door. One of the compartments was black and dark while the other one was white and lighted. For the training trial, each mouse was placed in the white and light compartment and facing away from the guillotine door for 30 seconds. Next, the guillotine door was opened and the mouse was able to freely enter the black and dark compartment. When the mouse entered the black and dark compartment with four paws, it received an electric unpleasant stimulus (0.5 mA, 2 seconds) through the grid floor. On the testing day (after 24 hours), we placed the mouse in the lighted compartment and there was no electrical stimulus. We reported the latency to enter the black and dark compartment while the guillotine door was open.

[7] = doses of 5 and 10 mg/kg, over 10 minutes

With `O=C(Nc1ccccc1)c1nnc(-c2ccc(Cl)cc2Oc2ccccc2)o1` [6a, 5-(4-chloro-2-phenoxyphenyl)-N-phenyl-1,3,4-oxadiazole-2-carboxamide] the Ki [1] was 0.44 nM, the “Specific binding of [3H]flumazenil” value ([1]; log[L] -7.0) was 0.3167±0.0378 cpm and the “Specific binding of [3H]flumazenil” value ([1]; log[L] -8.0) was 0.4000±0.0412 cpm. For the same compound, the “Specific binding of [3H]flumazenil” value ([1]; log[L] -8.5) was 0.4200±0.0102 cpm, the “Specific binding of [3H]flumazenil” value ([1]; log[L] -9.0) was 0.4667±0.0090 cpm and the “Specific binding of [3H]flumazenil” value ([1]; log[L] -9.5) was 0.5100±0.0156 cpm. For the same compound, the “Specific binding of [3H]flumazenil” value ([1]; log[L] -10.0) was 0.5800±0.0156 cpm, the “Specific binding of [3H]flumazenil” value ([1]; log[L] -11.0) was 0.6267±0.0034 cpm and the IC50 [1] was 0.73 ± 0.17 nM. The ED50 (male NMRI albino mice [2]; Mus musculus, i.p. 30 min before PTZ 100 mg/kg, mean with 95% confidence intervals) was 72 mg/kg, the “anticonvulsant activity in presence of flumazenil” value (male NMRI albino mice [2]; PTZ test, flumazenil 10 mg/kg) was “can antagonize the anticonvulsant activity” and the “anticonvulsant activity in presence of flumazenil” value (male NMRI albino mice [3]; MES test, flumazenil 10 mg/kg) was “can antagonize the anticonvulsant activity”. For the same compound, the ED50 (male NMRI albino mice [3]; Mus musculus, ip, i.p. 30 min before MES (60 Hz, 37.2 mA, 0.25 s), HLTE, mean with 95% confidence intervals) was 27.8 mg/kg, the Sleeping time (male NMRI albino mice [4]; 1.25 mg/kg i.p.) was 26 min and 38 min and 39 min and 46 min and 28 min and 20 min and 24 min and 32 min and the Sleeping time (male NMRI albino mice [4]; 5 mg/kg i.p.) was 48 minute and 44 minute and 50 minute (2×) and 43 minute and 57 minute and 40 minute and 56 minute. For the same compound, the Sleeping time (male NMRI albino mice [4]; 10 mg/kg + Flumazenil (10 mg/kg)) was 43 minute (2×) and 34 minute (2×) and 27 minute (2×) and 32 minute and 29 minute, the Sleeping time (male NMRI albino mice [4]; 10 mg/kg i.p.) was 53 minute and 64 minute and 47 minute (2×) and 43 minute and 40 minute and 55 minute and 49 minute and the “effect on sleeping time” value (male NMRI albino mice [4]; dose of 10 and 5 mg/kg, P<0.001) was “increased the sleeping time”. For the same compound, the “hypnotic effect in presence of flumazenil” value (male NMRI albino mice [4]; with flumazenil 10 mg/kg, P<0.001) was “prevented by flumazenil”, the “% duration in close arms” value (male NMRI albino mice [5]; 1.25 mg/kg i.p.) was 65.00% (2×) and 67.00% and 56.00% and 60.00% and 53.00% and 64.00% and 59.00% and the “% duration in open arms” value (male NMRI albino mice [5]; 1.25 mg/kg i.p.) was 35.00% (2×) and 33.00% and 44.00% and 40.00% and 47.00% and 36.21% and 41.00%. The “% duration in close arms” value (male NMRI albino mice [5]; 5 mg/kg i.p.) was 48.50% (2×) and 44.54% and 44.40% and 43.48% and 38.16% and 47.65% and 51.65%, the “% duration in open arms” value (male NMRI albino mice [5]; 5 mg/kg i.p.) was 51.49% (2×) and 55.45% and 55.59% and 56.51% and 61.83% and 52.34% and 48.34% and the “% duration in close arms” value (male NMRI albino mice [5]; 10 mg/kg i.p.) was 42.44% and 46.28% and 47.65% and 43.17% and 37.57% and 45.37% and 41.04% and 26.78%. For the same compound, the “% duration in open arms” value (male NMRI albino mice [5]; 10 mg/kg i.p.) was 57.55% and 53.71% and 52.34% and 56.82% and 62.42% and 54.62% and 58.96% and 73.22%, the “effect on close arm time (CAT)” value (male NMRI albino mice [5]; [7]) was “decrease the close arm time” and the “effect on open arm time (OAT)” value (male NMRI albino mice [5]; [7]) was “increase the open arm time”. The “latency of entrance to the dark compartment” value (shortened to “latency of entrance”) (male NMRI albino mice [6]; 1.25 mg/kg i.p.) was 320 second and 380 second and 393 second and 467 second and 480 second (2×) and 420 second (2×), the “latency of entrance” value (male NMRI albino mice [6]; 5 mg/kg i.p.) was 480 second (2×) and 440 second and 344 second and 343 second and 380 second and 407 second and 251 second and the “latency of entrance” value (male NMRI albino mice [6]; 10 mg/kg i.p.) was 320 s and 460 s and 407 s and 230 s and 400 s and 420 s and 480 s and 326 s. For the same compound, the “effect on latency to enter the dark compartment” value (male NMRI albino mice [6]; doses of 1.25, 2.5, 5, and 10 mg/kg) was “did not show any significant effect”.
In the case of `O=C(Nc1ccccn1)c1nnc(-c2ccc(Cl)cc2Oc2ccccc2)o1` [6b, 5-(4-chloro-2-phenoxyphenyl)-N-(pyridin-2-yl)-1,3,4-oxadiazole-2-carboxamide], the Ki [1] is reported as 2.35 nM, the “Specific binding of [3H]flumazenil” value ([1]; log[L] -7.0) is reported as 0.2333±0.0148 cpm and the “Specific binding of [3H]flumazenil” value ([1]; log[L] -8.0) is reported as 0.3733±0.0223 cpm. The “Specific binding of [3H]flumazenil” value ([1]; log[L] -8.5) was 0.4267±0.0090 cpm, the “Specific binding of [3H]flumazenil” value ([1]; log[L] -9.0) was 0.5233±0.0180 cpm and the “Specific binding of [3H]flumazenil” value ([1]; log[L] -9.5) was 0.5467±0.0068 cpm. For the same compound, the “Specific binding of [3H]flumazenil” value ([1]; log[L] -10.0) was 0.5900±0.0118 cpm, the “Specific binding of [3H]flumazenil” value ([1]; log[L] -11.0) was 0.6433±0.0122 cpm and the IC50 [1] was 3.84 ± 0.1 nM. For the same compound, the melting point was 198 to 200 °C.
For `Cc1cccc(NC(=O)c2nnc(-c3ccc(Cl)cc3Oc3ccccc3)o2)n1` [6c, 5-(4-chloro-2-phenoxyphenyl)-N-(6-methylpyridin-2-yl)-1,3,4-oxadiazole-2-carboxamide], the Ki [1] was 0.76 nM, the “Specific binding of [3H]flumazenil” value ([1]; log[L] -7.0) was 0.3000±0.0059 cpm and the “Specific binding of [3H]flumazenil” value ([1]; log[L] -8.0) was 0.3100±0.0102 cpm. For the same compound, the “Specific binding of [3H]flumazenil” value ([1]; log[L] -8.5) was 0.3767±0.0090 cpm, the “Specific binding of [3H]flumazenil” value ([1]; log[L] -9.0) was 0.4467±0.0207 cpm and the “Specific binding of [3H]flumazenil” value ([1]; log[L] -9.5) was 0.5367±0.0122 cpm. The “Specific binding of [3H]flumazenil” value ([1]; log[L] -10.0) was 0.5700±0.0156 cpm, the “Specific binding of [3H]flumazenil” value ([1]; log[L] -11.0) was 0.5733±0.0207 cpm and the IC50 [1] was 1.25 ± 0.09 nM. For the same compound, the melting point was 183.2 to 184.3 °C.
For `Cc1ccnc(NC(=O)c2nnc(-c3ccc(Cl)cc3Oc3ccccc3)o2)c1` [6d, 5-(4-chloro-2-phenoxyphenyl)-N-(4-methylpyridin-2-yl)-1,3,4-oxadiazole-2-carboxamide], the Ki [1] was 0.88 nM, the “Specific binding of [3H]flumazenil” value ([1]; log[L] -7.0) was 0.3000±0.0059 cpm and the “Specific binding of [3H]flumazenil” value ([1]; log[L] -8.0) was 0.3100±0.0102 cpm. The “Specific binding of [3H]flumazenil” value ([1]; log[L] -8.5) was 0.3767±0.0090 cpm, the “Specific binding of [3H]flumazenil” value ([1]; log[L] -9.0) was 0.4467±0.0207 cpm and the “Specific binding of [3H]flumazenil” value ([1]; log[L] -9.5) was 0.5367±0.0122 cpm. The “Specific binding of [3H]flumazenil” value ([1]; log[L] -10.0) was 0.5700±0.0156 cpm, the “Specific binding of [3H]flumazenil” value ([1]; log[L] -11.0) was 0.5733±0.0207 cpm and the IC50 [1] was 1.44 ± 0.09 nM. It also gave a melting point of 188.2 to 189.1 °C.
With `O=C(NN1CCOCC1)c1nnc(-c2ccc(Cl)cc2Oc2ccccc2)o1` [6e, 5-(4-chloro-2-phenoxyphenyl)-N-morpholino-1,3,4-oxadiazole-2-carboxamide] the Ki [1] was 0.95 nM, the “Specific binding of [3H]flumazenil” value ([1]; log[L] -7.0) was 0.2900±0.0059 cpm and the “Specific binding of [3H]flumazenil” value ([1]; log[L] -8.0) was 0.3067±0.0090 cpm. The “Specific binding of [3H]flumazenil” value ([1]; log[L] -8.5) was 0.3600±0.0060 cpm, the “Specific binding of [3H]flumazenil” value ([1]; log[L] -9.0) was 0.5867±0.0090 cpm and the “Specific binding of [3H]flumazenil” value ([1]; log[L] -9.5) was 0.6033±0.0189 cpm. For the same compound, the “Specific binding of [3H]flumazenil” value ([1]; log[L] -10.0) was 0.6667±0.0148 cpm, the “Specific binding of [3H]flumazenil” value ([1]; log[L] -11.0) was 0.6967±0.0148 cpm and the IC50 [1] was 1.55 ± 0.1 nM. For the same compound, the melting point was 159 to 161 °C.
In the case of `O=C(NC1CCCCC1)c1nnc(-c2ccc(Cl)cc2Oc2ccccc2)o1` [6f, 5-(4-chloro-2-phenoxyphenyl)-N-cyclohexyl-1,3,4-oxadiazole-2-carboxamide], the Ki [1] is reported as 1.53 nM, the “Specific binding of [3H]flumazenil” value ([1]; log[L] -7.0) is reported as 0.2133±0.0272 cpm and the “Specific binding of [3H]flumazenil” value ([1]; log[L] -8.0) is reported as 0.3533±0.0189 cpm. For the same compound, the “Specific binding of [3H]flumazenil” value ([1]; log[L] -8.5) was 0.4000±0.0118 cpm, the “Specific binding of [3H]flumazenil” value ([1]; log[L] -9.0) was 0.4533±0.0148 cpm and the “Specific binding of [3H]flumazenil” value ([1]; log[L] -9.5) was 0.5500±0.0156 cpm. For the same compound, the “Specific binding of [3H]flumazenil” value ([1]; log[L] -10.0) was 0.6133±0.0296 cpm, the “Specific binding of [3H]flumazenil” value ([1]; log[L] -11.0) was 0.5933±0.0207 cpm and the IC50 [1] was 2.51 ± 0.13 nM. The melting point was 132 to 133 °C.
